Our source for the Emax values is patent publication US12036210B2, “Heteroaryl substituted beta-hydroxyethylamines for use in treating hyperglycaemia” (ATROGI AB, priority 2017, dated 2024).

Structures can show the parent of a compound that is named as a salt.

One test relates to L6-myotubes. Description: Glucose uptake (3H-2-deoxy-glucose) in differentiated L6-myotubes. In kind it is cell-based. The conditions noted are these: agonist final concentration 1×10^−5, 50 nM 3H-2-deoxy-glucose, relative to isoproterenol, read-out: Biological example 1 (glucose uptake, activity compared to that of isoproterenol). Here is the method: (§1) L6-myoblasts were grown in Dulbecco's Modified Eagle's Medium (DMEM) containing 4.5 g/I glucose supplemented with 10% fetal bovine serum, 2 mM L-Glutamine, 50 U/ml penicillin, 50 μg/ml streptomycin and 10 mM HEPES. Cells were plated at 1×10^5 cells per ml in 24-well plates. After reaching 90% confluence the cells were grown in medium containing 2% FBS for 7 days where upon cells differentiated into myotubes.
Differentiated L6-myotubes were serum-starved over night in medium containing 0.5% fatty-acid free BSA and stimulated with agonist, final concentration 1×10^−5. After 1 h 40 min cells were washed with warm, glucose free medium or PBS and another portion of agonist was added to glucose free medium. After 20 min the cells were exposed to 50 nM ^3H-2-deoxy-glucose for another 10 min before washed in ice cold glucose free medium or PBS and lysed in 0.2 M NaOH for 1 h in 60° C.

The test system of test [1] is Intracellular cAMP levels. The test is described as follows: Measurement of intracellular cAMP levels in differentiated L6 cells (alpha screen cAMP kit). The format is cell-based. The conditions noted are these: Rattus norvegicus, L6, 0.25 h, agonist final concentration 1×10^−5 for 15 min, 1 mM IBMX, relative to isoproterenol, read-out: Biological example 2 (intracellular cAMP levels, activity compared to that of isoproterenol). Here is the method:
as §1
Differentiated cells were serum-starved over night and stimulated with agonist, final concentration 1×10^−5, for 15 min in stimulation buffer (HBSS supplemented with 1% BSA, 5 mM HEPES and 1 mM IBMX, pH 7.4) The medium was then aspirated and to end the reaction 100 μL of 95% EtOH was added to each well of a 24-well plate and cells were kept in −20° C. over night. The EtOH was let to evaporate and 500 μL of lysis buffer (1% BSA, 5 mM HEPES and 0.3% Tween-20, pH 7.4) was added to each well before put in −80° C. for 30 min and then kept in −20° C. Intracellular cAMP levels were detected using an alpha screen cAMP kit (6760635D from Perkin Elmer). The activity for each compound is compared to that of isoproterenol.
On the technique in general: cAMP levels reflect the balance of adenylyl cyclase and phosphodiesterase activity.

As for `CCCCNC[C@H](O)c1csc(N)n1` [Example 1, (S)-1-(2-Aminothiazol-4-yl)-2-(butylamino)ethan-1-ol hydrochloride], the Emax with L6-myotubes was 25 to 50%; in test [1] it was less than 25%.

In the case of `CCCCNC[C@H](O)c1csc(C(F)(F)F)n1` [Example 2, (S)-2-(Butylamino)-1-(2-(trifluoromethyl)thiazol-4-yl)ethan-1-ol hydrochloride], the figures for the Emax (in the test on L6-myotubes; in test [1]) were 25 to 50% and less than 25%, respectively.

Consider `CCCCNCC(O)c1ccc(=O)[nH]c1` (stereo not drawn) [Example 3, 5-(2-(Butylamino)-1-hydroxyethyl)pyridin-2(1H)-one], for which the Emax in the test on L6-myotubes is 25 to 50%; in test [1], less than 25%.

Consider `CCCCNCC(O)c1cc[nH]c(=O)c1` (stereo not drawn) [Example 4, 4-(2-(Butylamino)-1-hydroxyethyl)pyridin-2(1H)-one acetate], for which the Emax in the test with L6-myotubes is 50 to 75%; in test [1] it was less than 25%.

For `CCCCNC[C@H](O)c1ccnc(N)n1` [Example 5, (S)-1-(2-Aminopyrimidin-4-yl)-2-(butylamino)ethan-1-ol], the figures for the Emax (with L6-myotubes; in test [1]) were 25 to 50% and less than 25%, respectively.

Consider `CCCCNCC(O)c1ccncc1` (stereo not drawn) [Example 6, 2-(Butylamino)-1-(pyridin-4-yl)ethan-1-ol], for which the Emax in the test with L6-myotubes is 25 to 50%; in test [1], less than 25%.

On to `CCCCNCC(O)c1cccnc1` (stereo not drawn) [Example 7, 2-(Butylamino)-1-(pyridin-3-yl)ethan-1-ol], for which the Emax is 50 to 75% in the test on L6-myotubes and less than 25% in test [1].

On to `CCCCNC[C@H](O)c1cnc(NC(=O)C(C)C)s1` [Example 8, (S)—N-(5-(2-(Butylamino)-1-hydroxyethyl)thiazol-2-yl)isobutyramide], for which the Emax is 25 to 50% in the test on L6-myotubes and less than 25% in test [1].

For the molecule `CCCCNC[C@H](O)c1cnc(N)s1` [Example 9, (S)-1-(2-Aminothiazol-5-yl)-2-(butylamino)ethan-1-ol dihydrochloride], the values for the Emax (in the test with L6-myotubes; in test [1]) were 25 to 50% and less than 25%, respectively.

Turning to `CCCCNC[C@H](O)c1cnc(NC(=O)C(C)C)nc1` [Example 10, (R)—N-(5-(2-(Butylamino)-1-hydroxyethyl)pyrimidin-2-yl)isobutyramide hydrochloride], the Emax is 50 to 75% with L6-myotubes and less than 25% in test [1].

`CCCCNC[C@H](O)c1cnc(N)nc1` [Example 11, (R)-1-(2-Aminopyrimidin-5-yl)-2-(butylamino)ethan-1-ol]: the results for the Emax (in the test on L6-myotubes; in test [1]) were 50 to 75% and less than 25%, respectively.

In the case of `CC(C)(C)NC[C@H](O)c1ccc(O)cn1` [Example 12, (S)-6-(2-(tert-Butylamino)-1-hydroxyethyl)pyridin-3-ol], the values for the Emax (with L6-myotubes; in test [1]) were 50 to 75% and less than 25%, respectively.

As to `CC(C)(C)NC[C@H](O)c1cncc(O)c1` [Example 13, (R)-5-(2-(tert-Butylamino)-1-hydroxyethyl)pyridin-3-ol dihydrochloride], the Emax is greater than 75% with L6-myotubes and less than 25% in test [1].

Regarding `CC(C)(C)NCC(O)c1ccncc1O` (stereo not drawn) [Example 14, 4-(2-(tert-Butylamino)-1-hydroxyethyl)pyridin-3-ol hydrochloride], the Emax was greater than 75% in the test with L6-myotubes and less than 25% in test [1].

Take `Cn1ccc([C@@H](O)CNC(C)(C)C)cc1=O` [Example 15, (R)-4-(2-(tert-Butylamino)-1-hydroxyethyl)-1-methylpyridin-2(1H)-one]: the Emax in the test with L6-myotubes is greater than 75%; in test [1] it was less than 25%.

Turning to `CC(C)(C)NC[C@H](O)c1ccc(F)cn1` [Example 16, (S)-2-(tert-Butylamino)-1-(5-fluoropyridin-2-yl)ethan-1-ol], the Emax with L6-myotubes was 50 to 75%; in test [1] it was less than 25%.

On to `CC(C)(C)NC[C@H](O)c1cncc(F)c1` [Example 17, (R)-2-(tert-Butylamino)-1-(5-fluoropyridin-3-yl)ethan-1-ol], for which the Emax with L6-myotubes is greater than 75%; in test [1] it was 25 to 50%.

In the case of `CC(C)(C)NC[C@H](O)c1ccncc1F` [Example 18, (R)-2-(tert-Butylamino)-1-(3-fluoropyridin-4-yl)ethan-1-ol], the Emax with L6-myotubes was 25 to 50%; in test [1] it was less than 25%.

`CC(C)(C)NC[C@H](O)c1cncc(Cl)c1` [Example 19, (R)-2-(tert-Butylamino)-1-(5-chloropyridin-3-yl)ethan-1-ol]: the Emax in the test with L6-myotubes is greater than 75%; in test [1] it was less than 25%.

Turning to `CC(C)(C)NC[C@H](O)c1ncccc1Cl` [Example 20, (S)-2-(tert-Butylamino)-1-(3-chloropyridin-2-yl)ethan-1-ol dihydrochloride], the figures for the Emax (in the test on L6-myotubes; in test [1]) were 25 to 50% and less than 25%, respectively.

As to `CC(C)(C)NC[C@H](O)c1ccc(Cl)cn1` [Example 21, (S)-2-(tert-Butylamino)-1-(5-chloropyridin-2-yl)ethan-1-ol dihydrochloride], the Emax with L6-myotubes is 25 to 50%; in test [1] it was less than 25%.
